We go through eight molecules from ChEMBL document CHEMBL4613281, “Missing Selectivity of Targeted 4β-Phorbol Prodrugs Expected to be Potential Chemotherapeutics” (2020).

The source made the active and inactive calls. The calls are words filed in the database; no cut-off is given here. Starred links: 1 amine or outer side, 2 acyl side, 3 side chain; linkers in the order of their positions; H or OH if unused. Non-standard residues stand in square brackets, D forms with d. Residues, ends and D or L forms follow the SMILES beside them. *: point of attachment. X1 = CC(=O)O[C@@]12[C@H](O*)[C@@H](C)[C@@]3(O)[C@@H](C=C(CO)C[C@]4(O)C(=O)C(C)=C[C@@H]34)[C@@H]1C2(C)C; 12Ado = NCCCCCCCCCCCC(=O)O; Morpholide = C1CN(*)CCO1; CO = O=C([*:1])[*:2]

The target of assay [1] is T1, Protein kinase C (PKC) (Homo sapiens) (UniProt O94806+P41743+P17252+P05129+Q05655+P05771+Q05513+Q02156+P24723+Q15139+Q04759). Nature of the assay: Activation of PKC in human 22Rv1 cells assessed as increase in ERK1/ERK2 phosphorylations at 10 nM incubated for 30 mins by Western blot analysis. It counts as cell-based. As to conditions: CWR22R.
Assay [2] addresses T1, Protein kinase C (PKC) (Homo sapiens). Nature of the assay: Activation of PKC in human DU145 cells assessed as increase in ERK1/ERK2 phosphorylation at 10 nM incubated for 30 mins by Western blot analysis. The settings on record: DU-145. It counts as cell-based.
Assay [3] deals with Protein kinase C alpha type (Homo sapiens) (UniProt P17252). Nature of the assay: Displacement of [3H]PDBu from recombinant human PKCalpha expressed in baculovirus infected Sf9 insect cells incubated for 10 mins by liquid scintillation counting method.
For assay [4], the system named is PC-3. Nature of the assay: Antiproliferative activity against human PC3 cells incubated for 72 hrs by MTT assay. It counts as functional, cell-based.
Assay [5] has as its system PC-3. Nature of the assay: Antiproliferative activity against human PC3 cells at 40 uM incubated for 72 hrs by MTT assay relative to control. The assay is classed as functional.
In assay [6] the test system is DU-145. Nature of the assay: Antiproliferative activity against human DU145 cells at 40 uM incubated for 72 hrs by MTT assay relative to control. The assay is classed as functional.
In assay [7] the test system is DU-145. Nature of the assay: Antiproliferative activity against human DU145 cells incubated for 72 hrs by MTT assay. It counts as functional, cell-based.
In assay [8] the test system is LNCaP. Briefly: Antiproliferative activity against human LNCAP cells incubated for 72 hrs by MTT assay. The assay is classed as functional, cell-based.
For assay [9], the system named is LNCaP. Nature of the assay: Antiproliferative activity against human LNCAP cells at 40 uM incubated for 72 hrs by MTT assay relative to control. The assay is classed as functional.
Assay [10] relates to CWR22R. Nature of the assay: Antiproliferative activity against human 22Rv1 cells incubated for 72 hrs by MTT assay. It counts as functional, cell-based.
The subject of assay [11] is CWR22R. Nature of the assay: Antiproliferative activity against human 22Rv1 cells at 40 uM incubated for 72 hrs by MTT assay relative to control. It counts as functional.
Assay [12] has as its system PC-3. Briefly: Cytotoxicity against human PC3 cells assessed as effect on cell membrane incubated for 72 hrs by LDH assay. The assay is classed as functional, cell-based.
Assay [13] deals with CWR22R. Nature of the assay: Up regulation of PCKdelta in human 22Rv1 cells incubated for 72 hrs by Western blot analysis. It counts as functional, cell-based.
Assay [14] concerns CWR22R. Briefly: Up regulation of PCKalpha in human 22Rv1 cells at 20 uM incubated for 24 hrs by Western blot analysis. It counts as functional, cell-based.
The subject of assay [15] is CWR22R. Briefly: Up regulation of PSMA in human 22Rv1 cells incubated for 72 hrs by Western blot analysis. It counts as functional, cell-based.
Assay [16] relates to CWR22R. Briefly: Up regulation of PCKalpha in human 22Rv1 cells incubated for 72 hrs by Western blot analysis. It counts as functional, cell-based.
Assay [17] relates to DU-145. Briefly: Cytotoxicity against human DU145 cells assessed as effect on cell membrane incubated for 72 hrs by LDH assay. It counts as functional, cell-based.
Assay [18] concerns the target T1, Protein kinase C (PKC) (Homo sapiens). Briefly: Activation of PKC in human DU145 cells assessed as increase in ERK1/ERK2 phosphorylation at 20 uM incubated for 30 mins by Western blot analysis. As to conditions: DU-145. It counts as cell-based.
For assay [19] the target is unchanged. Briefly: Activation of PKC in human 22Rv1 cells assessed as increase in ERK1/ERK2 phosphorylation at 20 uM incubated for 30 mins by Western blot analysis. The assay is classed as cell-based. As to conditions: CWR22R.
The test system of assay [20] is CWR22R. Briefly: Cytotoxicity against human 22Rv1 cells assessed as effect on cell membrane incubated for 72 hrs by LDH assay. The assay is classed as functional, cell-based.
The test system of assay [21] is LNCaP. Nature of the assay: Cytotoxicity against human LNCAP cells assessed as effect on cell membrane incubated for 72 hrs by LDH assay. It counts as functional, cell-based.
Assay [22] relates to LNCaP. Briefly: Antiproliferative activity against human LNCAP cells at 1 to 40 uM incubated for 72 hrs by MTT assay. It counts as functional, cell-based.
For assay [23], the system named is PC-3. Nature of the assay: Antiproliferative activity against human PC3 cells at 1 to 40 uM incubated for 72 hrs by MTT assay. The assay is classed as functional, cell-based.
The subject of assay [24] is CWR22R. Nature of the assay: Antiproliferative activity against human 22Rv1 cells at 1 to 40 uM incubated for 72 hrs by MTT assay. The assay is classed as functional, cell-based.
The test system of assay [25] is DU-145. Briefly: Antiproliferative activity against human DU145 cells at 1 to 40 uM incubated for 72 hrs by MTT assay. It counts as functional, cell-based.
Assay [26] has as its system LNCaP. Briefly: Antiproliferative activity against human LNCAP cells incubated for 72 hrs in presence of pan-PKC inhibitor Go6983 by MTT assay. The assay is classed as functional, cell-based.
Assay [27] relates to LNCaP. Nature of the assay: Antiproliferative activity against human LNCAP cells at 20 to 40 uM incubated for 72 hrs by MTT assay relative to control. The assay is classed as functional.

For the molecule `CCCCCCCCCCCCCC(=O)O[C@@H]1[C@@H](C)[C@@]2(O)[C@@H](C=C(CO)C[C@]3(O)C(=O)C(C)=C[C@@H]23)[C@@H]2C(C)(C)[C@]12OC(C)=O`, the result in assay [1] and in [2] was Active. Further, the “[3H]PDBu displacement (active/not active)” value in assay [3] was “Active”.
On to `C/C=C(/C)C(=O)O[C@H]1C(C)=C2[C@H]([C@@H]1OC(=O)CCCCCCC)[C@@](C)(OC(C)=O)C[C@H](OC(=O)CCCCCCCCCCCNC(=O)C[C@H](N)C(N)=O)[C@@]1(O)[C@H]2OC(=O)[C@@]1(C)O`, for which the Activity entry in [4] was “Dose-dependent effect”; in [5], 15%; in assay [6], 20%; in assay [7] it was “Dose-dependent effect”; in [8], “Dose-dependent effect”; in assay [9], 4%. In addition, the Activity result was “Dose-dependent effect” in [10] and 27% in [11].
In the case of `CC(=O)O[C@@]12[C@H](OC(=O)CCCCCCCCCCCNC(=O)[C@@H](N)CC(C)C)[C@@H](C)[C@@]3(O)[C@@H](C=C(CO)C[C@]4(O)C(=O)C(C)=C[C@@H]34)[C@@H]1C2(C)C`, the Activity in assay [5] is 30%; in [6], 40%; in assay [9] it was 60%; in assay [11] it was 10%. Further, the result in assay [12], in [13], in [14], in assay [15], in assay [16] and in assay [17] was inactive. The outcome in assay [20] and in assay [21] was inactive. For the same molecule, the “[3H]PDBu displacement (active/not active)” value in assay [3] was “Active”. For the same molecule, the outcome in [18] and in [19] was Active.
For the molecule `CC(=O)O[C@@]12[C@H](OC(=O)CCCCCCCCCCCNC(=O)C[C@H](N)C(C)C)[C@@H](C)[C@@]3(O)[C@@H](C=C(CO)C[C@]4(O)C(=O)C(C)=C[C@@H]34)[C@@H]1C2(C)C`, the outcome in assay [12], in [22], in assay [23], in assay [24], in assay [13] and in [25] was inactive. For the same molecule, the outcome in assay [15], in assay [16], in [17], in [20] and in assay [21] was inactive. The result in assay [14], in [18] and in assay [19] was Active. For the same molecule, the “[3H]PDBu displacement (active/not active)” value in assay [3] was “Active”.
Turning to `C/C=C(/C)C(=O)O[C@H]1C(C)=C2[C@H]([C@@H]1OC(=O)CCCCCCC)[C@@](C)(OC(C)=O)C[C@H](OC(=O)CCCCCCCCCCCNC(=O)C[C@H](N)C(=O)N[C@@H](CCC(=O)N[C@@H](CCC(=O)N[C@@H](CCC(=O)N[C@@H](CCC(=O)O)C(=O)O)C(=O)O)C(=O)O)C(=O)O)[C@@]1(O)[C@H]2OC(=O)[C@@]1(C)O` [MIPSAGARGIN], the Activity is 32% in assay [5], 35% in assay [9] and 40% in assay [11].
In [5], `CC(=O)O[C@@]12[C@H](OC(=O)CCCCCCCCCCCNC(=O)C[C@H](N)C(=O)N[C@@H](CCC(=O)N[C@@H](CCC(=O)N[C@@H](CCC(=O)N[C@@H](CCC(=O)O)C(=O)O)C(=O)O)C(=O)O)C(=O)O)[C@@H](C)[C@@]3(O)[C@@H](C=C(CO)C[C@]4(O)C(=O)C(C)=C[C@@H]34)[C@@H]1C2(C)C` displayed an Activity of 10%. Moreover, the outcome in [12], in [13], in [15], in assay [16], in assay [17] and in [19] was inactive. In addition, the result in assay [20] and in [21] was inactive. The result in [14] and in assay [18] was Active. Further, in assay [3], the “[3H]PDBu displacement (active/not active)” value was “Active”.
Take `CC(=O)O[C@@]12[C@H](OC(=O)CCCCCCCCCCCNC(=O)[C@H](CC(C)C)NC(=O)[C@H](CCC(N)=O)NC(=O)[C@H](CC(C)C)NC(=O)[C@H](CCCCN)NC(=O)[C@H](CO)NC(=O)[C@H](CO)NC(=O)[C@H](Cc3cnc[nH]3)NC(=O)N3CCOCC3)[C@@H](C)[C@@]3(O)[C@@H](C=C(CO)C[C@]4(O)C(=O)C(C)=C[C@@H]34)[C@@H]1C2(C)C` ({Morpholide-CO}-HSSKLQL[12Ado]-X1): the result in assay [12], in assay [26], in assay [17], in assay [20] and in assay [21] was inactive. The molecule further returned an Activity in [27] of 32%. Moreover, the “[3H]PDBu displacement (active/not active)” value in assay [3] is “inactive”. Further, the result in assay [18] and in assay [19] was Active.
Turning to `CC(=O)NCC(=O)N[C@@H](CCCCN)C(=O)N[C@@H](C)C(=O)N[C@@H](Cc1ccccc1)C(=O)N[C@@H](CCCNC(=N)N)C(=O)N[C@@H](CCCNC(=N)N)C(=O)N[C@@H](CC(C)C)C(=O)NCCCCCCCCCCCC(=O)O[C@@H]1[C@@H](C)[C@@]2(O)[C@@H](C=C(CO)C[C@]3(O)C(=O)C(C)=C[C@@H]23)[C@@H]2C(C)(C)[C@]12OC(C)=O` (Ac-GKAFRRL[12Ado]-X1), the Activity in [5] is reported as 15%; in assay [11] it was 25%. In addition, the result in assay [12], in assay [13], in assay [14], in [15], in [16] and in assay [17] was inactive. Also, the outcome in [20] and in [21] was inactive. Further, the “[3H]PDBu displacement (active/not active)” value in assay [3] is “Active”. The result in [18] and in assay [19] was Active.
